Measurements: ChEMBL document CHEMBL1147755, “5-heteroatom substituted pyrazoles as canine COX-2 inhibitors. Part 1: Structure-activity relationship studies of 5-alkylamino pyrazoles and discovery of a potent, selective, and orally active analog” (Bioorg Med Chem Lett, 2006)
Active and inactive are the calls of the source. The calls are words filed in the database; no cut-off is given here.

Experiments:
Canis lupus familiaris = species: Canis lupus familiaris; assay: Selectivity of COX1 over COX2 in canine whole blood assay; format: tissue-based
[1] = molecular target: T1, Prostaglandin G/H synthase 1 (Canis lupus familiaris, UniProt Q8HZR1)
T1 sequence (Q8HZR1 whole entry): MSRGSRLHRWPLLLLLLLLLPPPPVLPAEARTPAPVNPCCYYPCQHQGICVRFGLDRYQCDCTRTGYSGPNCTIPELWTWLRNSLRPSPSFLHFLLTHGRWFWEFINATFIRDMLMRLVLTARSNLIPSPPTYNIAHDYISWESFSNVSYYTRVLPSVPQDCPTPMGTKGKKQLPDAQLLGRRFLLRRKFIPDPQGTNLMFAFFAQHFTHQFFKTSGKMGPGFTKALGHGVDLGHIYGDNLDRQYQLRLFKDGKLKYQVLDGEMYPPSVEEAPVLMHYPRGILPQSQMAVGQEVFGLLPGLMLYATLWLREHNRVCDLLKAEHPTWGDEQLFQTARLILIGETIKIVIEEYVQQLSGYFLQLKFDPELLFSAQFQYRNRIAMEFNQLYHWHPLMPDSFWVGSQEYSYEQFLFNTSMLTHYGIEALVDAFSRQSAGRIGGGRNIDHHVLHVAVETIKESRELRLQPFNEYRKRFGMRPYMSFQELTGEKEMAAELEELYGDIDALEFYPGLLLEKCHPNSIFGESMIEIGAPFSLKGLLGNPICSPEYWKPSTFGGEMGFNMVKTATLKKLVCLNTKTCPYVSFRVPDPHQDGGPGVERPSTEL
Description: Inhibitory activity against COX1 in canine whole blood

Cyclooxygenase-2 = molecular target: T2, Cyclooxygenase-2 (Canis lupus familiaris, UniProt Q8SPQ9)
T2 sequence (Q8SPQ9 whole entry): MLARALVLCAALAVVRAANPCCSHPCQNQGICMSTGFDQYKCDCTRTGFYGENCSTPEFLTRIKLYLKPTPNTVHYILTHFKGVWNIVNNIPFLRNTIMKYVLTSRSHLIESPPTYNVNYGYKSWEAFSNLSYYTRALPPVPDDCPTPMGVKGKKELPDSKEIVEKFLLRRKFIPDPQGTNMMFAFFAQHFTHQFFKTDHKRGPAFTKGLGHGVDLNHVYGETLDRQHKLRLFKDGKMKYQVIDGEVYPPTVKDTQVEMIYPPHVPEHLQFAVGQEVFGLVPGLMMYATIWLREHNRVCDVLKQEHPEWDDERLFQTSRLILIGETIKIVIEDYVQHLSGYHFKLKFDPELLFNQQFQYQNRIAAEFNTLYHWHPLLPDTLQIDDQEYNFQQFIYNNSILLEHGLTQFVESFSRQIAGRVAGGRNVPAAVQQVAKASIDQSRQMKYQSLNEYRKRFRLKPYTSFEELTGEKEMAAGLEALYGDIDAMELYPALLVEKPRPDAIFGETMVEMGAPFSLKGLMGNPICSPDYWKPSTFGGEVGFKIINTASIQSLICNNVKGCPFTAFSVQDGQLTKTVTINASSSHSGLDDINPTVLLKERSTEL
Description: Inhibitory activity against COX2 in canine whole blood

[2] = Cmax in dog administered at 2 mg/kg, po; format: ADME, organism-based, Canis lupus familiaris; parameters: dose 2 mg/kg, route oral; details: in vivo
Canis familiaris [3] = assay: AUC in dog administered at 2 mg/kg, po; format: ADME, organism-based, Canis lupus familiaris, Plasma; parameters: dose 2 mg/kg, route oral; details: in vivo
[4] = Tmax in dog administered at 2 mg/kg, po; format: ADME, organism-based, Canis lupus familiaris; parameters: dose 2 mg/kg, route oral; details: in vivo
[5] = Half life in dog administered at 2 mg/kg, po; format: ADME, organism-based, Canis lupus familiaris; parameters: dose 2 mg/kg, route oral; details: in vivo
[6] = AUC in cat administered at 0.5 mg/kg, sc; format: ADME, organism-based, Felis catus; parameters: dose 0.5 mg/kg, route subcutaneous; details: plasma
[7] = Cmax in cat administered at 0.5 mg/kg, sc; format: ADME, organism-based, Felis catus; parameters: dose 0.5 mg/kg, route subcutaneous; details: in vivo
[8] = Half life in cat administered at 0.5 mg/kg, sc; format: ADME, organism-based, Felis catus; parameters: dose 0.5 mg/kg, route subcutaneous; details: in vivo
[9] = Tmax in cat administered at 0.5 mg/kg, sc; format: ADME, organism-based, Felis catus; parameters: dose 0.5 mg/kg, route subcutaneous; details: in vivo
Canis familiaris [10] = assay: Decrease in lameness induced by synovitis in knee joints of Beagle dogs at 4 mg/kg; format: functional, organism-based; parameters: dose 4 mg/kg; details: Canis lupus familiaris, Knee joint

| SMILES | IC50 [1] [µM] | IC50 (Cyclooxygenase-2) [µM] | Cmax [2] [ng/mL] | AUC (Canis familiaris [3]) [ng·h/mL] | Tmax [4] [h] | half-life [5] [h] | Ratio IC50 (Canis lupus familiaris) | AUC [6] [ng·h/mL] | Cmax [7] [ng/mL] | half-life [8] [h] | Tmax [9] [h] | Activity (Canis familiaris [10]) |
| --- | --- | --- | --- | --- | --- | --- | --- | --- | --- | --- | --- | --- |
| Cc1ccc(CNc2c(C#N)c(C(F)(F)F)nn2-c2ccc(S(C)(=O)=O)cn2)cc1 | 21.5 | 0.115 |  |  |  |  | 187 |  |  |  |  |  |
| CC(C)Nc1c(C#N)c(C(F)(F)F)nn1-c1ccc(S(C)(=O)=O)cn1 | 40.8 | 0.36 |  |  |  |  | 114 |  |  |  |  |  |
| CC1CC(C)CN(c2c(C#N)c(C(F)(F)F)nn2-c2ccc(S(N)(=O)=O)cn2)C1 (configuration not stated) | 42.6 | 1.87 |  |  |  |  | 22.8 |  |  |  |  |  |
| C[C@@H]1CN(c2c(C#N)c(C(F)F)nn2-c2ccc(S(C)(=O)=O)cn2)C[C@H](C)O1 | 43.8 | 0.24 | 815 | 4830 | 1.4 | 11 | 186 | 26800 | 194 | 60 | 28 | Active |
| CS(=O)(=O)c1ccc(-n2nc(C(F)F)c(C#N)c2NCC2OCCO2)nc1 | > 50 | 0.19 |  |  |  |  | > 259 |  |  |  |  |  |
| CC1CC(C)CN(c2c(C#N)c(C(F)(F)F)nn2-c2ccc(S(C)(=O)=O)cn2)C1 (configuration not stated) | > 50 | 0.095 |  |  |  |  | > 526 |  |  |  |  |  |
| CC(C)(C)CNc1c(C#N)c(C(F)F)nn1-c1ccc(S(C)(=O)=O)cn1 | 36.3 | 0.2 |  |  |  |  | 180 |  |  |  |  |  |
| CS(=O)(=O)c1ccc(-n2nc(C(F)F)c(C#N)c2NC2CC3CCC2C3)nc1 (configuration not stated) | 20.9 | 0.42 |  |  |  |  | 49.8 |  |  |  |  |  |
| C[C@@H]1CN(c2c(C#N)c(C(F)(F)F)nn2-c2ccc(S(C)(=O)=O)cn2)C[C@H](C)O1 | > 50 | 0.14 | 134 | 1950 | 1 | 30 | > 357 |  |  |  |  |  |
| CC(C)(C)CNc1c(C#N)c(C(F)F)nn1-c1ccc(S(N)(=O)=O)cn1 | 18 | 0.36 |  |  |  |  | 48.2 |  |  |  |  |  |
| CS(=O)(=O)c1ccc(-n2nc(C(F)(F)F)c(C#N)c2NCC2CC2)nc1 | 22 | 0.11 |  |  |  |  | 200 |  |  |  |  |  |
| CC(C)(C)CNc1c(C#N)c(C(F)(F)F)nn1-c1ccc(S(C)(=O)=O)cn1 | > 50 | 0.23 |  |  |  |  | > 217 |  |  |  |  |  |
| CS(=O)(=O)c1ccc(-n2nc(C(F)(F)F)c(C#N)c2NCC2OCCO2)nc1 | > 50 | 0.126 |  |  |  |  | > 397 |  |  |  |  |  |
| C[C@@H]1CN(c2c(C#N)c(C(F)(F)F)nn2-c2ccc(S(N)(=O)=O)cn2)C[C@H](C)O1 | > 50 | 7.9 |  |  |  |  | > 6.3 |  |  |  |  |  |
| CS(=O)(=O)c1ccc(-n2nc(C(F)(F)F)c(C#N)c2N2CCCCC2)nc1 | > 50 | 0.15 |  |  |  |  | > 325 |  |  |  |  |  |
| C[C@@H]1CN(c2c(C#N)c(C(F)F)nn2-c2ccc(S(N)(=O)=O)cn2)C[C@H](C)O1 | > 50 | 5 |  |  |  |  | > 10 |  |  |  |  |  |

These reach a lower IC50 [1]. Values come first.

| IC50 [1] [µM] | IC50 (Cyclooxygenase-2) [µM] | Cmax [2] [ng/mL] | AUC (Canis familiaris [3]) [ng·h/mL] | Tmax [4] [h] | half-life [5] [h] | SMILES | Ratio IC50 (Canis lupus familiaris) | AUC [6] [ng·h/mL] | Cmax [7] [ng/mL] | half-life [8] [h] | Tmax [9] [h] | Activity (Canis familiaris [10]) |
| --- | --- | --- | --- | --- | --- | --- | --- | --- | --- | --- | --- | --- |
| 16.5 | 0.063 | 86 | 118 | 0.5 | 2 | CS(=O)(=O)c1ccc(-n2nc(C(F)(F)F)c(C#N)c2NCC2CCCO2)nc1 (configuration not stated) | 262 |  |  |  |  |  |
| 15.5 | 0.14 |  |  |  |  | N#Cc1c(C(F)(F)F)nn(-c2ccc(S(N)(=O)=O)cn2)c1NC1CC2CCC1C2 (configuration not stated) | 107 |  |  |  |  |  |
| 15.5 | 0.144 |  |  |  |  | CS(=O)(=O)c1ccc(-n2nc(C(F)(F)F)c(C#N)c2NC2CC3CCC2C3)nc1 (configuration not stated) | 107 |  |  |  |  |  |
| 14.6 | 1.25 | 528 | 1360 | 1.5 | 1 | N#Cc1c(C(F)(F)F)nn(-c2ccc(S(N)(=O)=O)cn2)c1NCC1CCCO1 (configuration not stated) | 11.7 |  |  |  |  |  |
| 13.2 | 0.13 |  |  |  |  | CC(C)(C)CNc1c(C#N)c(C(F)(F)F)nn1-c1ccc(S(N)(=O)=O)cn1 | 98.7 |  |  |  |  |  |
| 12.9 | 0.13 | 92 | 281 | 0.8 | 2.1 | CS(=O)(=O)c1ccc(-n2nc(C(F)F)c(C#N)c2N2CCCCCC2)nc1 | 99.3 |  |  |  |  |  |
| 10.8 | 0.297 |  |  |  |  | CC1CCCCC1Nc1c(C#N)c(C(F)(F)F)nn1-c1ccc(S(C)(=O)=O)cn1 (configuration not stated) | 36 |  |  |  |  |  |
| 7 | 0.21 | 506 | 2100 | 0.5 | 1.5 | C[C@@H]1C[C@H](C)CN(c2c(C#N)c(C(F)F)nn2-c2ccc(S(N)(=O)=O)cn2)C1 | 34.7 |  |  |  |  |  |
| 6.7 | 0.197 |  |  |  |  | CCC(CC)Nc1c(C#N)c(C(F)(F)F)nn1-c1ccc(S(C)(=O)=O)cn1 | 33.8 |  |  |  |  |  |
| 5.6 | 0.125 |  |  |  |  | CS(=O)(=O)c1ccc(-n2nc(C(F)(F)F)c(C#N)c2NCc2cccs2)nc1 | 44.5 |  |  |  |  |  |
| 4.5 | 0.19 | 310 | 910 | 1.3 | 2.4 | CCC(C)CNc1c(C#N)c(C(F)(F)F)nn1-c1ccc(S(N)(=O)=O)cn1 (configuration not stated) | 23.1 |  |  |  |  |  |
| 4 | 0.2 |  |  |  |  | CCC(C)CNc1c(C#N)c(C(F)F)nn1-c1ccc(S(N)(=O)=O)cn1 (configuration not stated) | 21.9 |  |  |  |  |  |
| 3.4 | 0.132 |  |  |  |  | CC(C)C(C)Nc1c(C#N)c(C(F)(F)F)nn1-c1ccc(S(C)(=O)=O)cn1 (configuration not stated) | 25.8 |  |  |  |  |  |
| 2 | 0.03 | 151 | 450 | 0.5 | 4.6 | CC1CCCN(c2c(C#N)c(C(F)F)nn2-c2ccc(S(C)(=O)=O)cn2)C1 (configuration not stated) | 75 |  |  |  |  |  |
